Measurements from patent publication US12180146B2, “Antihypertensive polyol compound and derivative thereof” (TAO PHARMACEUTICAL (SUZHOU) CO., LTD, priority 2020, dated 2024).

What was measured:
[1] = tested on: monocrotaline-induced pulmonary hypertension model rats (MCT-PAH); assay: Monocrotaline-induced pulmonary hypertension model rats, aerosol inhalation treatment; assay type: in vivo, SD rats; conditions: inh, 28 days
Procedure: A pulmonary hypertension animal model of SD rats was established by subcutaneous injection of monocrotaline (MCT). The compound 1 was administered by aerosol inhalation for treatment. The pulmonary artery hemodynamics and right heart hypertrophy index RVHI of rats were tested to determine whether compound 1 administered by aerosol inhalation has effects of improving monocrotaline-induced pulmonary hypertension.
SD rats (purchased from Shanghai Xipuer-Bikai Experimental Animal Co., Ltd.), male, weighing 180-200 g, were bred in an artificially controlled animal room with each 12 hours of light and darkness at a temperature of 20-25° C. and relative humidity of 50-60%, and allowed ad libitum to food and water. The rats were randomly divided into groups according to the experimental requirements, and kept separately in cages, with 3 to 4 rats per cage. All relevant operations of animal experiments are in compliance with the provisions of “Guidelines for the Management and Use of Laboratory Animals” of China.
In the second experiment, the rats were divided into 5 groups, namely the control group, model group, positive control Tyvaso (1.62 μg/kg) group, compound 1 (10 mg/kg) group and compound 1 (30 mg/kg) group. On the first day of the experiment, normal saline was injected subcutaneously into the back of the neck of the rats in the blank control group, and monocrotaline (Chengdu Purifa Biotechnology Co., Ltd.) solution was injected in the other groups at a dosage of 60 mg/kg. Compound 1 and Tyvaso were administered by aerosol inhalation, that is, the compound was firstly dissolved in physiological saline, and then the solution was prepared into an aerosol with a nebulizer to be inhaled into the mouth and nose of rats. The rats in the control group and the model group only inhaled an aerosol made of physiological saline. The rats were continuously administered for 28 days, and the concentration in the parentheses of the group name represents the administered concentration of the compound. Specific groupings can be found in Table 9. After the administration, the pulmonary vascular hemodynamics and RVHI were determined in the same way as the experiment method in Example 1.

[2] = tested on: spontaneously hypertensive rats (SHR); assay: Antihypertensive activity test: blood pressure and heart rate of spontaneously hypertensive rats (SHR); assay type: in vivo, rat; conditions: 200 mg/kg
Summary of the method: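 Spontaneously hypertensive rats received compound at 200 mg/kg. SBP and heart rate were measured before and after dosing. A drop in SBP of ≥20 mmHg from baseline counted as effective, and heart-rate changes were tested by paired t-test (P<0.05).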

[3] = after administration (6 h M ± SD), n = 8
[4] = before administration, M ± SD, n = 8

CCc1cccc(C(O)CO)c1 (stereo not drawn) [Compound 1, 1-(3-ethylphenyl)-1,2-ethylene glycol]
2 × MT/ED ([1]; 10 mg/kg): 0.335 ± 0.034 | RVHI ([1]; 10 mg/kg): 0.235 ± 0.026 | RVSP ([1]; 10 mg/kg): 35.92 ± 3.74 mmHg | mPAP ([1]; 10 mg/kg): 11.46 ± 2.48 mmHg | RVHI ([1]; 10 mg/kg, listed as compound 1, 10 mg/kg): 0.235±0.026 | 2 × MT/ED ([1]; 30 mg/kg): 0.319 ± 0.035 | RVHI ([1]; 30 mg/kg): 0.204 ± 0.035 | RVSP ([1]; 30 mg/kg): 31.18 ± 4.62 mmHg | mPAP ([1]; 30 mg/kg): 8.06 ± 2.59 mmHg | RVHI ([1]; 30 mg/kg, listed as compound 1, 30 mg/kg): 0.204±0.035 | time after administration of maximum antihypertensive effects [2]: 3 h | SHR heart rate, time after administration 0 h ([2]; 0 h, N = 8): 356 ± 46.4 beat/min | Heart rate Difference before and after administration, 1 h ([2]; 1 h): −9 beat/min | SBP Difference before and after administration, 1 h ([2]; 1 h): 16 mmHg | SHR heart rate, time after administration 1 h ([2]; 1 h, N = 8): 348 ± 39.3 beat/min | SHR blood pressure (SBP), time after administration 1 h ([2]; 1 h, n = 8): 176 ± 9.55 mmHg | Heart rate Difference before and after administration, 2 h ([2]; 2 h): 23 beat/min | SBP Difference before and after administration, 2 h ([2]; 2 h): 20 mmHg | SHR heart rate, time after administration 2 h ([2]; 2 h, N = 8): 380 ± 34.1 beat/min | SHR blood pressure (SBP), time after administration 2 h ([2]; 2 h, n = 8): 172 ± 7.36 mmHg | Heart rate Difference before and after administration, 3 h ([2]; 3 h): 28 beat/min | SBP Difference before and after administration, 3 h ([2]; 3 h): 23 mmHg | SHR heart rate, time after administration 3 h ([2]; 3 h, N = 8): 385 ± 31.5 beat/min | SHR blood pressure (SBP), time after administration 3 h ([2]; 3 h, n = 8): 169 ± 4.07 mmHg | Heart rate Difference before and after administration, 4 h ([2]; 4 h): 28 beat/min | SBP Difference before and after administration, 4 h ([2]; 4 h): 19 mmHg | SHR heart rate, time after administration 4 h ([2]; 4 h, N = 8): 385 ± 30.4 beat/min | SHR blood pressure (SBP), time after administration 4 h ([2]; 4 h, n = 8): 173 ± 7.15 mmHg | Heart rate Difference before and after administration, 5 h ([2]; 5 h): 16 beat/min | SBP Difference before and after administration, 5 h ([2]; 5 h): 17 mmHg | SHR heart rate, time after administration 5 h ([2]; 5 h, N = 8): 372 ± 28.5 beat/min | SHR blood pressure (SBP), time after administration 5 h ([2]; 5 h, n = 8): 175 ± 5.61 mmHg | Heart rate Difference before and after administration, 6 h ([2]; 6 h): 17 beat/min | SBP Difference before and after administration, 6 h ([2]; 6 h): 11 mmHg | SHR heart rate, time after administration 6 h ([2]; 6 h, N = 8): 373 ± 31.3 beat/min | SHR blood pressure (SBP), time after administration 6 h ([2]; 6 h, n = 8): 180 ± 6.66 mmHg | Blood pressure (SBP, mmHg) After administration [2, 3]: 174 ± 4.01 mmHg | Heart rate (beat/min) After administration [2, 3]: 368 ± 25.5 beat/min | Heart rate Difference (beat/min) ([2]; after administration minus baseline (6 h)): 12 beat/min | Blood pressure Difference mmHg ([2]; baseline minus after administration (6 h)): 18 mmHg | Blood pressure (SBP, mmHg) Baseline [2, 4]: 192 ± 7.98 mmHg | Heart rate (beat/min) Baseline [2, 4]: 356 ± 46.4 beat/min
